How the values were obtained:
[1] = molecular target: T1, Acetylcholinesterase from Electrophorus electricus (AChE) (Electrophorus electricus, UniProt O42275); assay: biochemical; conditions: for mechanism of inhibition on AChE: from Km and Vmax at different inhibitor concentrations; for IC50: mean ± SD, three determinations, pH 7.4, 500 μM acetylthiocholine
T1 construct: purchased Sigma-Aldrich (Milano, Italy)
Description: (§1) AChE or BuChE activity was assayed by the Ellman method as previously reported, using acetylthiocholine or butirrylthiocholine as a substrate, respectively. […] The reaction was started by the addition of 100 mU/mL AChE or BuChE, and the initial rate of the reaction was derived from the linear portion of the kinetics. […] Linear curve fits were obtained with the least-squares method, and the significance of the correlation was estimated from the squared correlation coefficient r^2.
(§2) The determination of the kinetic parameters Km and Vmax for both cholinesterase and monoamine oxidase activities were determined by measuring the initial velocity (v0) of substrate consumption/product formed at different substrate concentrations, as reported above. […] The Ki values obtained at different inhibitor concentrations were averaged to obtain a unique value of apparent Ki for each compound. Kinetic parameters and their corresponding standard errors were evaluated using a simple weighting method (Student’s t test).

[2] = molecular target: T2, butirrylcholinesterase from equine serum (BuChE) (Equus caballus, UniProt P81908); assay: biochemical; conditions: for inhibition type determined for BuChE: from Km and Vmax at different inhibitor concentrations; for IC50: mean ± SD, three determinations, pH 7.4, 500 μM butirrylthiocholine
T2 construct: butirrylcholinesterase from equine serum (BuChE); purchased Sigma-Aldrich (Milano, Italy); host or cells: equine serum
Description: as §1, §2

[3] = molecular target: mouse BACE-1 (Mus musculus, UniProt P56818); assay: BACE-1 activity, fluorescent peptide substrate; type: biochemical; conditions: mean ± SD, four determinations; pH 4.5
Description: BACE-1 activity was assayed as previously reported. Briefly, the reaction mixtures contained 2.1 ng/µL mouse BACE-1 in 50 mM ammonium acetate buffer, pH 4.5 supplemented with 1 mM triton X-100, and the appropriate amount of the hybrid derivatives. The mixture was incubated for 10 min at room temperature and started by adding 100 nM final concentration of the fluorescent peptide substrate. The increase in fluorescence was followed kinetically using excitation and emission wavelengths of 320 and 420 nm, respectively. The rate was derived from the linear portion of the kinetics, usually in the first 30 min of the reaction. The known BACE-1 inhibitors I and IV were used as positive controls.

[4] = molecular target: T3, Aβ 1–40 peptide (Homo sapiens, UniProt P05067); assay: Aβ 1–40 self-aggregation inhibition assay (thioflavine T); type: biochemical; conditions: for IC50: 96 µM peptide, 37 °C, 24 h, mean ± SD, three determinations, read-out: IC50 on Aβ 1–40 fibril formation; for interference with fibril formation: up to 500 µM
T3 construct: Human β-amyloid peptide (1–40, cat. ab120479); purchased Abcam (Cambridge, UK) ab120479
Description: The percent inhibition due to the presence of the self-aggregation inhibition was calculated from the decrease in the fluorescence signal after the subtraction of the background fluorescence of a thioflavin T solution obtained in the same way.

[5] = test system: SH-SY5Y cells; assay: Cell viability by MTT assay; type: cell-based, Human
Description: Human neuroblastoma SH-SY5Y cell line is the most widely used model to reproduce in vitro AD [37]. This cell line was acquired from the American Type Culture Collection (20099 Sesto San Giovanni, Milan, Italy) and maintained in culture in Dulbecco Modified’s Eagle’s Medium (DMEM) (supplemented with 100 U/mL penicillin, 100 µg/mL streptomycin, and 10% thermally inactivated bovine fetal serum). The cells were appropriately differentiated: a treatment with trans retinoid acid 10 µM for 5 days was chosen (Sigma Aldrich, 20151 Milan, Italy). […] At the end of the treatment, all appropriate tests were performed.
The use of 3-(4,5-dimethyl[…])-2,5-diphenyltetrazole (MTT) bromide allowed the determination of cell viability for the presence of active enzymes within mitochondria in living cells. Mitochondrial […] can reduce MTT by producing colorimetric modification whose spectrophotometric measurement provides valuable information on cell viability. An amount of 8 × 10^3 cells/well was plated onto 96-well plates. After 24 h, the culture medium was replaced with fresh phenol-free medium containing a solution of MTT (0.5 mg/mL), and after 4 h of incubation, 100 μL 10% SDS was added to each well to solubilize the formazan crystals. The optical density was measured at wavelengths of 540 and 690 nm using a spectrophotometric reader (X MARK Spectrophotometer Microplate Bio-Rad).
Aβ 25 μM peptide was incubated alone or in the presence the specific amount of each hybrid compound [28] for 24 h at room temperature prior to the cell treatment. […]

[6] = test system: SH-SY5Y cells; assay: Malondialdehyde (MDA), TBA reaction; type: cell-based, Human; conditions: Aβ peptide
Description: Lipid peroxidation was evaluated by measuring the reaction products of MDA with thiobarbituric acid (TBA), which forms a colorimetric product proportional to the MDA present. The cells were placed in 10 cm diameter cell culture and the following day were treated as indicated. At the end of the treatment, the cells were scraped, and then the suspension was subjected to freezing/thawing cycles. Subsequently, 36 mM TBA dissolved in glacial acetic acid was added and the mixture heated for 60 min to 100 °C. The reaction was interrupted by placing the vials on ice for 10 min, and a spectrophotometric reading was carried out at 532 nm.

[7] = test system: SH-SY5Y cells; assay: Intracellular ROS (H2DCF-DA, cytofluorimetric analysis); type: cell-based, Human; conditions: Aβ peptide
Description: Human neuroblastoma SH-SY5Y cell line is the most widely used model to reproduce in vitro AD [37]. This cell line was acquired from the American Type Culture Collection (20099 Sesto San Giovanni, Milan, Italy) and maintained in culture in Dulbecco Modified’s Eagle’s Medium (DMEM) (supplemented with 100 U/mL penicillin, 100 µg/mL streptomycin, and 10% thermally inactivated bovine fetal serum). The cells were appropriately differentiated: a treatment with trans retinoid acid 10 µM for 5 days was chosen (Sigma Aldrich, 20151 Milan, Italy). The medium was changed every 2–3 days, and when the cell line reached about 50% confluence, it was supplemented with the mixtures (MIX 0, 1, 2, 3, 4, 5, 6, 7) for a further 24 h. At the end of the treatment, all appropriate tests were performed.
The probe used to measure intracellular reactive oxygen species (ROS) is the molecule H2DCF-DA [39]. In fact, after its simple diffusion in cells, H2DCF-DA is cleaved by cellular esterases, which are responsible for the loss of an acetate group, transforming it into H2DCF. This compound can no longer leave the cell and binds the ROS to the highly fluorescent compound DCF. In this way, the quantification of DCF provides the content of cellular ROS. […] The fluorescence was evaluated by cytometric analysis (FACS Accury, Becton Dickinson, Milan, Italy). […]

[8] = test system: cleaved caspase 3 in SH-SY5Y cells; assay: Cleaved caspase-3 expression, Western blotting; type: cell-based, Human; conditions: mixtures 24 h; Aβ peptide vs untreated cells
Description: The total lysates of SH-SY5Y cells were obtained from 6-multiwells. Lysates were taken after the cells were exposed to a preheated lysis buffer (80 °C) containing 50 mM of Tris-HCl (pH 6.8), 2% of SDS, and a protease inhibitor mixture and immediately boiled for 2 min. The protein concentration was determined using a DCA protein assay. After the addition of 0.05% bromophenol blue, 10% glycerol, and 2% β-mercaptoethanol, the samples were boiled again and loaded onto 12% SDS-polyacrylamide gels. Following electrophoresis, the polypeptides were transferred to nitrocellulose filters and blocked with TTBS/milk (TBS 1%, Tween 20, and nonfat dry milk 5%), and then the antibodies were used to reveal the respective antigens. Primary antibodies were incubated overnight at 4 °C, and, after washing, the filters were exposed to horseradish peroxidase-conjugated secondary antibody for 1 h at room temperature. The blots were developed using the chemiluminescence procedure. Experiments of immunoblot analysis were carried out in two ways: (a) electrophoresis of proteins obtained from cell extracts, as described; and (b) electrophoresis of proteins obtained by the formation of mixtures in the test tubes (in the absence of cells). […]

T3 sequence (P05067 672-711): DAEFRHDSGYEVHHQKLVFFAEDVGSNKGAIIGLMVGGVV
T2 sequence (P81908 whole entry): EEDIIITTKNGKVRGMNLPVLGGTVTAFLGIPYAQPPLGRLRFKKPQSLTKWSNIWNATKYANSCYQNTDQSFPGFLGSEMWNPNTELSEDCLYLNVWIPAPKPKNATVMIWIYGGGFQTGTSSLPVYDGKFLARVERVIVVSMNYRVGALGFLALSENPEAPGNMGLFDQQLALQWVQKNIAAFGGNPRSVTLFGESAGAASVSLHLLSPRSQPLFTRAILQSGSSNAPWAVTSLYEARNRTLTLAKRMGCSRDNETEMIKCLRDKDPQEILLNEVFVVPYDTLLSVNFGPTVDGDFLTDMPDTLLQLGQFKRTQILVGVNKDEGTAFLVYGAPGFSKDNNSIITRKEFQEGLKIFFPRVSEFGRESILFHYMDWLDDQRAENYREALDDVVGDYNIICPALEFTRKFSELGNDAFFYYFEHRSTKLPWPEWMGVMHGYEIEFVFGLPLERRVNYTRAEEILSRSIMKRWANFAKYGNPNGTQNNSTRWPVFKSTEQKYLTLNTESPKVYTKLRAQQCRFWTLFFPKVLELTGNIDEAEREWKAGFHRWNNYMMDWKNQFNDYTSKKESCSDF
T1 sequence (O42275 24-633): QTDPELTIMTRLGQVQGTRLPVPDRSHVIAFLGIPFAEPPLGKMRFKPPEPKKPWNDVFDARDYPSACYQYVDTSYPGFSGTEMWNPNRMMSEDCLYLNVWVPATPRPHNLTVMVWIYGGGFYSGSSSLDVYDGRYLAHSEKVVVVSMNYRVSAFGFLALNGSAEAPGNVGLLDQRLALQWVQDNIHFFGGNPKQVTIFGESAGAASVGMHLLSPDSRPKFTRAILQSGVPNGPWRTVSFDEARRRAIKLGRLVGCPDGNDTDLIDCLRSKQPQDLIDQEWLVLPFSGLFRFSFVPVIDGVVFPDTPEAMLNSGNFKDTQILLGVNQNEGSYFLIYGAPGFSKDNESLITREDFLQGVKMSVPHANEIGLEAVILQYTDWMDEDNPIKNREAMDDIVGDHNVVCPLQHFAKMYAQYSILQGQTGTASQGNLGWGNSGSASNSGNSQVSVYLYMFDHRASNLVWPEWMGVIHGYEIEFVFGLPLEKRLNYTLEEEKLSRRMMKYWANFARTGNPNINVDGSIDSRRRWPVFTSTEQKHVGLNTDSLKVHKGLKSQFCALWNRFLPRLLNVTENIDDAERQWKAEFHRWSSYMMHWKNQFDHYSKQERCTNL
mouse BACE-1, sequence (P56818 46-501): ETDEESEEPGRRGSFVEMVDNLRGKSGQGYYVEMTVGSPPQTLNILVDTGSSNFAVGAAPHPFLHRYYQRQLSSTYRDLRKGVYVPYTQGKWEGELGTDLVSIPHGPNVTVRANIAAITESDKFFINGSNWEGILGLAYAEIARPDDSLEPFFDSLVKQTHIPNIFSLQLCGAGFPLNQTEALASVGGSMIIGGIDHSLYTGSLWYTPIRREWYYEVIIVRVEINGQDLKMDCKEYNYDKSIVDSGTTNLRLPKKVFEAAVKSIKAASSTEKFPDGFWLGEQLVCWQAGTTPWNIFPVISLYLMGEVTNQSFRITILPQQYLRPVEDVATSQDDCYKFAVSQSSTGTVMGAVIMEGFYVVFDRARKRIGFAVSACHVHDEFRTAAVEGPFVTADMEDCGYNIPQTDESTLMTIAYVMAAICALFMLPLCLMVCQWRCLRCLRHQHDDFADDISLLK

Row | Compound | mechanism of inhibition on AChE [1] | IC50 [1] | inhibition type determined for BuChE [2] | IC50 [2] | IC50 [3] | IC50 [4] | interference with fibril formation [4] | reduction in cell vitality ([5]; 48 and 72 h, at the concentrations considered (0.1–100 μM)) | cell viability ([5]; Aβ peptide 0.1 μM) | cell viability ([5]; Aβ peptide 1, 10 and 100 μM) | malondialdehyde accumulation ([6]; 48 and 72 h) | malondialdehyde accumulation ([6]; after 24 h) | ROS in the cells ([7]; after 48 and 72 h) | ROS in the cells ([7]; after 24 h) | expression of the cleaved form of caspase 3 [8]
1 | O=C(OCCc1ccc(O)c(O)c1)C1CCN(Cc2ccccc2)CC1 [HT1] | uncompetitive | 6.5 ± 0.8 µM | mixed | 20.3 ± 2.4 µM | 11.3 ± 1.2 µM | 375 ± 143 µM | – | – | – | – | – | – | – | – | –
2 | CC(=O)Oc1ccc(CCOC(=O)C2CCN(Cc3ccccc3)CC2)cc1OC(C)=O [HT1a] | mixed | 4.3 ± 0.7 µM | mixed | 4.2 ± 0.4 µM | 16.9 ± 0.1 µM | 106 ± 11.1 µM | – | – | – | – | – | – | – | – | –
3 | O=C(OCCc1cc(O)c(O)cc1[N+](=O)[O-])C1CCN(Cc2ccccc2)CC1 [HT2] | noncompetitive | 3.8 ± 0.3 µM | mixed | 31.8 ± 5.7 µM | 128 ± 42 µM | 418 ± 41.1 µM | – | – | – | – | – | – | – | – | –
4 | COc1cc(CCOC(=O)C2CCN(Cc3ccccc3)CC2)ccc1O [HT3] | uncompetitive | 4 ± 0.4 µM | mixed | 7.2 ± 0.9 µM | 76.8 ± 3 µM | – | did not interfere with fibril formation | – | – | – | – | – | – | – | –
5 | COc1cc(CCOC(=O)C2CCN(Cc3ccccc3)CC2)ccc1OC(C)=O [HT3a] | uncompetitive | 2.6 ± 0.2 µM | noncompetitive | 4.3 ± 0.9 µM | 19.7 ± 0.7 µM | – | did not interfere with fibril formation | – | – | – | – | – | – | – | –
6 | O=C(OCCc1ccc(O)cc1)C1CCN(Cc2ccccc2)CC1 [HT4] | uncompetitive | 4.9 ± 0.5 µM | noncompetitive | 22.9 ± 7.1 µM | 52.2 ± 2.1 µM | – | did not interfere with fibril formation | – | – | – | – | – | – | – | –
7 | CC(=O)Oc1ccc(CCOC(=O)C2CCN(Cc3ccccc3)CC2)cc1 [HT4a] | uncompetitive | 2.9 ± 0.2 µM | mixed | 4.1 ± 0.5 µM | 115 ± 5.1 µM | – | did not interfere with fibril formation | – | – | – | – | – | – | – | –
8 | Aβ peptide: Human β-amyloid peptide (1–40, cat. ab120479) from Abcam | – | – | – | – | – | – | – | more than 20% | ineffective | gradual and increasing reduction in cell viability | increasing accumulation of malondialdehyde | absent | no longer detectable | significant increase in ROS | increased expression of caspase 3

Source: article PMC10488223 (International Journal of Molecular Sciences, 2023)
